From patent US20020058288A1, “TOXOPLASMA GONDII GLYCOCONJUGATES” (priority 1995, published 2002)

How the values were obtained:
the trypanosome = conditions: cited from earlier work
[1] = test system: binding of mAb T54E10 to the n-butanol species; assay: ELISA inhibition-binding study, mAb T54E10 on n-butanol fraction GPI species; design: species or system mouse
Experimental: The GPI species of the n-butanol fraction were coated on microtiter wells at a coat concentration which corresponds to 10^6 tachyzoites per well. […] Ethanolamine (10 mM) itself was able to inhibit the binding of mAb T54E10 by 50%. All other compounds tested were not able to inhibit the binding of the monoclonal antibody. However, the binding of human anti-Toxoplasma antibodies was not affected by any of the compounds tested.
FIG. 6: Inhibition ELISA: Inhibition ELISA using glycolipids contained in the butanol phase as antigen and mAb T54E10

SMILES: CCCOCCCCCCCCCC(=O)O [10-(propoxy) decanoic acid]
- Toxicity to the trypanosome (the trypanosome): selective toxicity

SMILES: NCCO [Ethanolamine]
- Inhibition of the binding of mAb T54E10 ([1]; 10 mM): 50%

SMILES: NCCOP(=O)(O)O [ethanolamine-phosphate]
- Inhibition of binding of mAb T54E10 to n-butanol species ([1]; coat corresponding to 10^6 tachyzoites per well, FIG. 6): inhibited
